Consider one molecule from US20260345654A1, “2,8-DIHYDROXYQUINOLINE GLUCURONIDE DERIVATIVES WITH ENHANCED PROPERTIES FOR USE AS ANTICANCER, ANTIVIRAL, ANTIMICROBIAL, AND OTHER THERAPEUTIC APPLICATIONS” (priority 2023, published 2026).

Entries after “also recorded” stand apart in the source; their conditions may differ. Read-outs that look alike come from different tables or passages of the source.

In data set [1] the test system is squamous cell carcinoma. In words: Case study, topical W1469, squamous cell carcinoma (Individual 4). The data set is classed as in vivo, human. The procedure:
(§1) Topical gel containing 0.5 mg/ml W1469 in proprietary aqueous alcohol gel, applied initially once daily using a suitable topical applicator.
(§2) In general, the Treatment/Patient protocol used for the patient testing was as follows: • 1. Photograph the application site prior to starting the protocol. Note any changes in lesion size, color, etc. of treatment area. • 2. Remove a loaded syringe from the freezer, dry ice or refrigerator and allow to gradually warm to room temperature. • 3. Photograph the syringe each time prior to application. Note the color of the gel contained in the syringe. • 4. Lightly clean the skin surface with alcohol wipe. • 5. […] Let the liquid from the gel absorb into the site without disturbing. Apply once a day at the same time. • 6. Re-cap the syringe and store in the refrigerator until completely used. • 7. Repeat 1-6 each daily during application period. It is noted in this protocol that photographing the syringe used with each application period accomplishes two things.
Physician administered, variable treatment protocol, drug concentrations and vehicle carrier. A person with 2 mm ulcerative lesion (squamous cell carcinoma) to the post-auricular area of left side of the head. The lesion area had been biopsied and treated with cryotherapy one year prior. Lesion area had begun to reappear 3 months prior to this photo. After three days of once daily treatment, the same lesion was already reduced to approximately ½ of original size. […] Note: Subject's initial dosing schedule was once daily. […] Upon next visit (three days after initial dosing) […] dose was doubled while maintaining a once daily schedule. Over the next three days their lesion resolved completely and without any adverse reactions noted.

In data set [2] the test system is A431 cells. In words: In vitro anti-proliferation (CellTiter-Glo, 72 hr), A431. The data set is classed as cell-based. The procedure:
(§3) Commercially available 8HQ and freshly synthesized G2-8HQ were prepared for in vitro anti-proliferative studies against the following cell lines with and without the presence of 10 μM Cu(+2): (1) A549: […]; (2) BT-549: epithelial cells from ductal tumor; (3) DU-145: human prostate cancer; (4) PANC-1: pancreatic cancer; (5) SU.86.86: a new adoptive pancreatic cell for immunotherapy studies; (6) RL: non-Hodgkin's lymphoma; (7) LnCAP, Prostate cancer cell line; (8) A431, a squamous cell carcinoma line; and (9) UACC-62 a malignant melanoma cell line.
(§4) With regard to the study protocol used, the objective was to conduct a study of the cytotoxicity of W1469 against several cancer cell lines. In the study protocol, preparations for the A549 (Lung) cell line screen are given as an example. The following materials were used: (1) FBS (2) RPMI-1640 medium supplemented with 10% FBS:’ and (3) A549 Cells. The four samples tested are referred to as Items 1-4 below and were placed at 4 °C upon arrival. These four samples were as follows: • Item 1: Tube A (W1469) (500 uM when FBS added) • Item 2: Tube B (W1469g) (1000 uM when FBS added) • Item 3: Tube C (W1469) • Item 4: Tube D (W1469g)
(§5) Add 50 μL of above 2× stocks to appropriate wells to expose appropriate cells to the final dilutions of samples. Add 50 μL media to media and cell control wells and 50 μL media mix to vehicle control wells. Cells are exposed for 72 hr. Following a 72 hr exposure to Sample, perform a CTG assay on all remaining plates.
(§6) At the end of the 72 hr exposure period, remove plates for CellTiter-Glo assay from 37 °C, 5% CO2 incubator and place on the bench at room temperature for 30 mins. Add 100 μL CellTiter-Glo reagent, mix for 2 mins, followed by a further 10 min incubation at room temperature. Record luminescence. Tables showing the resulting plate layouts are included below/
The other cancer cell lines tested gave similar results. […] Three additional cell lines were also studied and described more completely in Example 9 provided herein. These cell lines included cytotoxicity testing of WT1469 (G2-8HQ) against LnCAP a prostate cancer, A431 a squamous carcinoma cell line and UACC-62 a malignant melanoma cell line. All were complexed in situ with copper immediately prior to testing. The results from these additional cell lines and incorporated in Table 2 and Example 9.
For orientation: In ATP-based viability assays light output follows the ATP content of the culture.

The subject of data set [3] is RL cells. The experiment in a line: In vitro anti-proliferation (CellTiter-Glo, 72 hr), RL. The data set is classed as cell-based. The procedure:
as §3, §4, §5, §6

In data set [4] the test system is SU.86.86 cells. In words: In vitro anti-proliferation (CellTiter-Glo, 72 hr), SU.86.86. The data set is classed as cell-based. On the procedure:
as §3, §4, §5, §6

Data set [5] has as its system PANC-1 cells. The experiment in a line: In vitro anti-proliferation (CellTiter-Glo, 72 hr), PANC-1. It counts as cell-based. The procedure:
as §3, §4, §5, §6

Data set [6] concerns ulcerative lesion to mid forehead. In words: Case study, topical W1469, ulcerative lesion (Individual 3). The data set is classed as in vivo, human. Particulars: Individual 3, twice daily, after one week. On the procedure:
as §1, §2
Physician administered, variable treatment protocol, drug concentrations and vehicle carrier. A person with ulcerative lesion to mid forehead approximately 3 mm×4 mm. […]. Non painful and without exudate. Therapy applied on a twice daily dosing schedule.

Where [7] appears, read: 1 and 0.5 μM, presence of Cu^+2 ions, wide standard deviation.
The mark [8] stands for this setting: +Cu (10 μM), 72 hr, G2-8HQ values based on MW of apo form (337), read-out: IC50.

As for `O=C(O)[C@H]1O[C@@H](Oc2ccc3cccc(O)c3n2)[C@H](O)[C@@H](O)[C@@H]1O` [G2-8HQ, 8-Hydroxy-2-quinolinyl beta-D-glucopyranosiduronic acid], the “lesion size (fraction of original size)” value in data set [1] (Individual 4, after three days of once daily treatment) was “approximately ½”. Also, in data set [1] (Individual 4, once daily, dose doubled after three days), the adverse reactions entry is recorded as “no adverse reactions”. Moreover, in data set [1] (Individual 4, regular treatment for one week), the lesion resolution result is on record as “complete resolution of the patient's lesion”. In addition, the IC50 came to 85 µM in data set [2] (+Cu, complexed in situ with copper immediately prior to testing, not based on apo MW, read-out: IC50); 64 µM in data set [2] (Homo sapiens, A-431, +Cu, complexed in situ with copper immediately prior to testing, not based on apo MW, read-out: IC50); 63.2 µM in data set [2] (Homo sapiens, A-431, complexed with Cu in situ, * differences with or without excipient, suboptimal complexing, read-out: IC50 (adjusted to MW of copper complex)); 83.4 µM in data set [2] (complexed with Cu in situ, * differences with or without excipient, suboptimal complexing, listed as W1469, read-out: IC50 (adjusted to MW of copper complex)); 0.47 µM in data set [3] (setting [8]); 0.468 µM in data set [3] (Homo sapiens, RL, 72 h, +Cu (10 μM), 72 hr, G2-8HQ values based on MW of apo form (337), read-out: IC50). Besides, the half-maximal inhibitory concentration (IC50) in data set [3] (Homo sapiens, RL, 72 h, −Cu, 72 hr, read-out: IC50) was > 500 µM; in data set [3] (Homo sapiens, RL, complexed with Cu, multiplied by 337/776=0.43, read-out: IC50 (adjusted to MW of copper complex)) it was 0.2 µM; in data set [4] (setting [8]) it was 13 µM; in data set [4] (Homo sapiens, SU.86.86, 72 h, +Cu (10 μM), 72 hr, G2-8HQ values based on MW of apo form (337), read-out: IC50), 10 µM; in data set [4] (Homo sapiens, SU.86.86, 72 h, −Cu, 72 hr, read-out: IC50), > 500 µM; in data set [4] (Homo sapiens, SU.86.86, complexed with Cu, multiplied by 337/776=0.43, column 3 duplicate of column 2, read-out: IC50 (adjusted to MW of copper complex)), 4.3 µM. The IC50 is 5.6 µM in data set [4] (complexed with Cu, multiplied by 337/776=0.43, column 3 duplicate of column 2, listed as W1469, read-out: IC50 (adjusted to MW of copper complex)) and > 500 µM in data set [5] (Homo sapiens, PANC-1, 72 h, −Cu, 72 hr). The cytotoxicity entry is “in a percentage of cases, all of the cancer cells were killed at concentrations between at 1 and 0.5 μM; also recorded: in some % of the screens all the cancer cells were killed at these concentrations” in data set [3] (setting [7]); “in a percentage of cases, all of the cancer cells were killed at concentrations between at 1 and 0.5 μM; also recorded: in some % of the screens all the cancer cells were killed at these concentrations” in data set [4] (setting [7]); “at least some of the screens reflected that all the cancer cells were killed at these concentrations; also recorded: in some % of the screens all the cancer cells were killed at these concentrations” in data set [5] (setting [7]). For the same molecule, in data set [6], the “erythema, exudate, or hyperkeratosis” value was “No erythema, exudate, or hyperkeratosis noted”. Moreover, in data set [6], the ulcerative lesion entry is given as “resolution of ulcerative lesion”.

By IC50 is commonly meant the point on the concentration scale where inhibition reaches its midpoint.
